In publication PMC6009888, “Design, synthesis, and pharmacological evaluation of 2-amino-5-nitrothiazole derived semicarbazones as dual inhibitors of monoamine oxidase and cholinesterase: effect of the size of aryl binding site” (Journal of Enzyme Inhibition and Medicinal Chemistry, 2017):
Where “and” joins values, the source holds several entries; their conditions need not be identical. Equal entries are not always repeated. Where two headings read alike, the source gives them in different places.

What was measured:
[1] = biological target: T1, rat brain AChE (Rattus norvegicus, UniProt P37136); assay: biochemical; format: biochemical; conditions: for IC50: rat brain AChE, ACTI substrate, mean ± SEM, triplicate
T1 construct: the resulting clear supernatants obtained were used as enzyme sources; from tissue; host or cells: rat brain cortex homogenate, 10,000 g supernatant
Description: Rat brain was used as a source of AChE enzyme. Rats were separately decapitated, the brain cortices quickly removed, weighed and homogenised in cold 10 mM Tris-HCl buffer, pH 7.2, containing 160 mM sucrose. The homogenates were centrifuged at 10,000 g for 10 min at 4 °C, and the resulting clear supernatants obtained were used as enzyme sources that were divided into aliquots and stored at −20 °C.
About 30 µl of enzyme sample (AChE) was added to 60 µl of 20 mM sodium phosphate buffer (pH 7.4) and were incubated in the presence of 30 µl of 10 mM DTNB solution with different concentrations of the test compounds. The enzyme reaction was initiated by the addition of 30 µl of 0.8 mM ACTI. The mixtures were incubated for 15 min at 25 °C. […] Control experiments were carried out without inhibitor, and blanks were run without AChE enzyme. All the assays were performed in triplicate. IC50 values were determined using the GraphPad Prism 5.0 (San Diego, CA) and the results were expressed as mean ± SEM.
(§1) 0, 15, 30 and 60 min at 25 °C in sodium phosphate buffer (20 mM, pH 7.4) and DTNB solution (10 mM). […] The reaction was further incubated at 25 °C for a further 15 min and the residual enzyme activities were measured and the bar graphs were constructed. All measurements were carried out in triplicate and are expressed as mean ± SEM.

[2] = In vitro DPPH radical scavenging assay; conditions: test sample 100 µg/ml, 100 µM methanolic DPPH, 30 min, 517 nm
Description: Antioxidant activity of the synthesised compounds (10 mg/ml) was evaluated using the radical scavenging capability against the stable free radical, 2,2′-diphenyl-1-picryl hydrazyl (DPPH·). The DPPH· scavenging capability was determined using UV based spectrophotometric assay. About 200 µl of the test sample solution (100 µg/ml) was added to 4 ml of 100 µM methanolic DPPH. […] Ascorbic acid (100 µg/ml) was used as reference. The percentage inhibition of DPPH activity was estimated using the formula: Percent (%) inhibition of DPPH activity = Acontrol-Asample/Acontrol×100 where Acontrol is the absorbance of DPPH· in methanol without an antioxidant and Asample is the absorbance of DPPH· in the presence of an antioxidant.

[3] = biological target: T2, MAO-A (Rattus norvegicus, UniProt P21396); assay: In vitro MAO-A inhibition assay (rat brain mitochondria, serotonin substrate); format: biochemical; conditions: rat brain mitochondria, serotonin substrate, mean ± SEM, triplicate
T2 construct: employing crude rat brain mitochondrial suspension; from tissue; host or cells: brain mitochondria of adult Wistar rats
T2 sequence (P21396 1-526): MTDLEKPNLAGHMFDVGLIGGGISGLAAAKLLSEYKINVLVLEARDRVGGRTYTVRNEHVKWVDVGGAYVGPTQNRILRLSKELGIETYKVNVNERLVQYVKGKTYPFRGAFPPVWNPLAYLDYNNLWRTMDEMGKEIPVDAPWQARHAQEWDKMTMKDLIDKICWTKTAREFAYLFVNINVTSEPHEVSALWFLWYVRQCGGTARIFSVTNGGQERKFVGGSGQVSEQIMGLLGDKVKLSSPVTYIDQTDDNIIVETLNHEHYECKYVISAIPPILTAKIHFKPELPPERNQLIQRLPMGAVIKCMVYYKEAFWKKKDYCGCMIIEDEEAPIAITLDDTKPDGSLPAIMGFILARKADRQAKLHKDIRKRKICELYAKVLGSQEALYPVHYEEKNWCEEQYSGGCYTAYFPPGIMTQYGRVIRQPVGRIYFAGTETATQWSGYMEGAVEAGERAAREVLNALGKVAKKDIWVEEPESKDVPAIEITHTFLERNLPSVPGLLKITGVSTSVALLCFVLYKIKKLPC
Description: (§2) Rat brain mitochondria were used as a source of MAO isoforms. All operations were carried out at 4 °C[50]. Male and female adult Wistar rats weighing 200–220 g were decapitated. All brains were rapidly removed and homogenised with a Potter–Elvehjem homogeniser in cold 0.32 M sucrose and 50 mM Tris-HCl, pH 8.2 (10:1, v/w). The homogenate was centrifuged twice at 1000 g for 5 min at 4 °C. The resulting supernatant was centrifuged at 20,000 g for 20 min. The mitochondrial pellet obtained was suspended in 100 mM sodium phosphate buffer, pH 7.4 (4:1, v/w), fractionated in plastic vials to 500 µl samples and stored at −80 °C. Before use, mitochondria were diluted with 100 mM sodium phosphate buffer to give a working solution of 0.80 mg of protein per millilitre.
(§3) The experiments were carried out under all the suitable laboratory conditions. […] An aliquot was made to contain mixture of 55 µl mitochondrial suspension (0.80 mg of protein/ml), 90 µl 50 mM Tris-HCl buffer, pH 8.2 and 30 µl solubilising solution (control or inhibitor solution at five different concentrations). The reaction was initiated by adding 25 µl of serotonin (4 mM, substrate for MAO-A) and 25 µl benzylamine (0.1 M, substrate for MAO-B) for the determination of MAO-A and MAO-B activity, respectively. The mixture was incubated at 37 °C for 30 min and the reaction was stopped by the addition of 50 µl of 1 N HCl. The absorbance associated with the production of 5-hydroxyindolacetic acid was measured at 280 nm for the estimation of MAO-A while for MAO-B estimation, the absorbance was measured at 250 nm due to the formation of benzaldehyde. All the assays were performed in triplicate. Control experiments were carried out without inhibitor and blanks were run without mitochondrial suspension.
(§4) Data are expressed as mean ± standard error mean (SEM) of experiments performed in triplicate.
as §1, with “37” for “25”, “Tris-HCl” for “sodium phosphate”, “(50” for “(20”, “8.2).” for “7.4) and DTNB solution (10 mM).”, “reactions were” for “reaction was”

[4] = tested on: mice; assay: Neurotoxicity screening (rotarod test); format: in vivo; conditions: for Neurotoxicity (animals that exhibit toxicity / animals tested): 30 mg/kg i.p.
Description: The neurotoxicity screening was undertaken according to the method followed by the National Institute of Health, using their reported procedures[55]^,[56]. Male albino mice (CF-1 strain or Swiss, 18–25 g) were used as experimental animals. The animals were housed in metabolic cages, and allowed free access to food and water. The test compounds were suspended in 0.5% methylcellulose/water mixture or in polyethylene glycol (PEG 200).
Minimal motor impairment was measured in mice by the rotarod test. The mice were trained to stay on an accelerating rotarod that rotates at six revolutions per minute. The rod diameter was 3.2 cm. Trained animals were given i.p. injection of the selected inhibitors at a dose of 30 mg/kg. Neurotoxicity was indicated by the inability of the animal to maintain equilibrium on the rod for at least 1 min in each of the three trials.

[5] = biological target: T3, MAO-B (Rattus norvegicus, UniProt P19643); assay: biochemical; conditions: for SI (selectivity index for MAO-B): ratio of experimental IC50(MAO-A)/IC50(MAO-B)
T3 construct: employing crude rat brain mitochondrial suspension; from tissue; host or cells: brain mitochondria of adult Wistar rats
T3 sequence (P19643 1-520): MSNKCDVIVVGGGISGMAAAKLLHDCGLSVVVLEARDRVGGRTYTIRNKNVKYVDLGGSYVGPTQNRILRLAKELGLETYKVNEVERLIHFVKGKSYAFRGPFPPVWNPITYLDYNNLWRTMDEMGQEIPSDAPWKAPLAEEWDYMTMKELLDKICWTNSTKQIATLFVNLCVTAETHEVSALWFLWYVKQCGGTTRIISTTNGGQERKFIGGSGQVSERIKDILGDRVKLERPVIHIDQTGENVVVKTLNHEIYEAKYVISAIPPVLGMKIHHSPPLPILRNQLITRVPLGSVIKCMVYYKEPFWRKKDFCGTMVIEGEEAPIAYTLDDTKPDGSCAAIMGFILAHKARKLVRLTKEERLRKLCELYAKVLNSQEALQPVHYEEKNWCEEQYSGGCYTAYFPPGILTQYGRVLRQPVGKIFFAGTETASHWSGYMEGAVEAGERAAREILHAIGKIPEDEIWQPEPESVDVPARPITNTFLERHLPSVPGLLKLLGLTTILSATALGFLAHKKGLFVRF
Description: as §2, §3, §4
as §1, with “37” for “25”, “Tris-HCl” for “sodium phosphate”, “(50” for “(20”, “8.2).” for “7.4) and DTNB solution (10 mM).”, “reactions were” for “reaction was”

[6] = physchem
[7] = read-out: AChE In vitro IC50 (µM) ± SEM
[8] = read-out: MAO-A In vitro IC50 (µM) ± SEM

T1 sequence (P37136 32-614): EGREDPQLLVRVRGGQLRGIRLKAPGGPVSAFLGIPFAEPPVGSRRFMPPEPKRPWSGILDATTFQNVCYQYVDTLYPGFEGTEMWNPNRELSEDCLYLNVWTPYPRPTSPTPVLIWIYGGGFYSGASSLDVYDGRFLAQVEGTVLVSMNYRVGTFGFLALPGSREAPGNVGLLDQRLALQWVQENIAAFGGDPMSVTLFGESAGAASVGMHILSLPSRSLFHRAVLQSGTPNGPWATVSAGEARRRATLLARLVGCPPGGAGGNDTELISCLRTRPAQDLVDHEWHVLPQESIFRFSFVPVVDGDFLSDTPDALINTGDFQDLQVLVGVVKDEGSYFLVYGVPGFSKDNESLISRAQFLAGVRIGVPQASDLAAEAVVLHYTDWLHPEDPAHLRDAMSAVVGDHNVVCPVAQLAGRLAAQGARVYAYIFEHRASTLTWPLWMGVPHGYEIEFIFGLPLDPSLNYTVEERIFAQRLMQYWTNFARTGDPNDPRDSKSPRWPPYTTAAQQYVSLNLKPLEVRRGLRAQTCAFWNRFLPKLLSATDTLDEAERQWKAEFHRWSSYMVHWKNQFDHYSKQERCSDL

SMILES	IC50 [1, 7]	% inhibition of DPPH activity [2]	IC50 [3, 8]	Neurotoxicity (animals that exhibit toxicity / animals tested) ([4]; 0.5 h)	Neurotoxicity (animals that exhibit toxicity / animals tested) ([4]; 1 h)	Neurotoxicity (animals that exhibit toxicity / animals tested) ([4]; 2 h)	Neurotoxicity (animals that exhibit toxicity / animals tested) ([4]; 4 h)	IC50 [5]	SI (selectivity index for MAO-B) [5]	logP ([6]; octanol/water)	further results
O=C(NN=C(CBr)c1ccc(Br)cc1)Nc1ncc([N+](=O)[O-])s1 [Compound 9, 1-(2-Bromo-1-(4-bromophenyl)ethylidene)-4-(5-nitrothiazol-2-yl)semicarbazide]	3.926 ± 0.014 µM	35.89%	314 ± 1.89 µM	2/4	1/4	0/4	0/4	0.313 ± 0.007 µM	1003.19	–	Neurotoxicity (verdict in words) ([4]; 30 mg/kg, relative to phenytoin): moderately neurotoxic
O=C1NC(=O)C(c2ccccc2)(c2ccccc2)N1 [Phenytoin, reference compound]	–	–	–	0/4	0/4	0/4	0/2	–	–	–	–
O=C(NN=Cc1c(Cl)cccc1Cl)Nc1ncc([N+](=O)[O-])s1 [Compound 14, 1-(2,6-Dichlorobenzylidene)-4-(5-nitrothiazol-2-yl)semicarbazide]	10.7 ± 0.56 µM	55.29%	13910 ± 19.7 µM	–	–	–	–	16.9 ± 0.37 µM	821.43	3.1	MAO-B: fold less active than compound 13 ([5]; isomeric dichloro derivatives): ~4.85 fold
COc1ccc(OC)c(C=NNC(=O)Nc2ncc([N+](=O)[O-])s2)c1 [Compound 15, 1-(2,5-Dimethoxybenzylidene)-4-(5-nitrothiazol-2-yl)semicarbazide]	872 ± 4.38 µM	10.58%	> 100 µM and 55000 µM	–	–	–	–	11.1 ± 0.19 µM	4945.91	–	–
CC(=NNC(=O)Nc1ncc([N+](=O)[O-])s1)c1ccc(F)cc1 [Compound 6, 1-(1-(4-Fluorophenyl)ethylidene)-4-(5-nitrothiazol-2-yl)semicarbazide]	468 ± 4.98 µM	30.43%	> 100 µM and 46100 µM	–	–	–	–	19.89 ± 0.032 µM	2316.04	1.3	AChE: fold decrease in activity versus bromo substitution (compound 4) ([1]; halogen at carbimino terminal phenyl ring): > 1000 fold
O=C1O[C@H]([C@@H](O)CO)C(O)=C1O [Ascorbic acid, reference compound]	–	61.24%	–	–	–	–	–	–	–	–	–
O=C(NN=Cc1ccc(O)cc1)Nc1ncc([N+](=O)[O-])s1 [Compound 11, 1-(4-Hydroxybenzylidene)-4-(5-nitrothiazol-2-yl)semicarbazide]	584 ± 7.92 µM	–	11340 ± 11.7 µM	–	–	–	–	241.5 ± 2.31 µM	46.96	1.6	–
CC(=NNC(=O)Nc1ncc([N+](=O)[O-])s1)c1ccc([N+](=O)[O-])cc1 [Compound 8, 1-(1-(4-Nitrophenyl)ethylidene)-4-(5-nitrothiazol-2-yl)semicarbazide]	–	11.60%	–	–	–	–	–	23.88 ± 0.022 µM	114.86	–	IC50 ([1]; AChE In vitro IC50 (µM) ± SEM): 45.5 ± 1.36 µM; IC50 ([3]; MAO-A In vitro IC50 (µM) ± SEM): 2743 ± 3.65 µM; logP [6]: 1.4
CC(=NNC(=O)Nc1ncc([N+](=O)[O-])s1)c1ccc(O)cc1 [Compound 7, 1-(1-(4-Hydroxyphenyl)ethylidene)-4-(5-nitrothiazol-2-yl)semicarbazide]	12.7 ± 0.62 µM	–	5899 ± 9.84 µM	0/4	0/4	0/4	0/4	14.75 ± 0.018 µM	399.93	1.2	AChE: fold greater potency relative to compound 11 ([1]; ratio of IC50 values): ~46 fold; MAO-B: fold greater potency relative to compound 11 ([5]; ratio of IC50 values): ~16.37 fold
O=C(NN=Cc1ccc(Br)cc1)Nc1ncc([N+](=O)[O-])s1 [Compound 10, 1-(4-Bromobenzylidene)-4-(5-nitrothiazol-2-yl)semicarbazide]	96.4 ± 2.81 µM	–	5153 ± 8.82 µM	–	–	–	–	5.451 ± 0.009 µM	945.33	2.5	–
